Columns and labels:
[1] = target: T1, proteasome chymotrypsin-like activity (CT-L) (Homo sapiens, UniProt P28074); assay: Cell-based CT-L proteasome activity inhibition
T1 construct: endogenous in cells
T1 sequence (P28074 60-263): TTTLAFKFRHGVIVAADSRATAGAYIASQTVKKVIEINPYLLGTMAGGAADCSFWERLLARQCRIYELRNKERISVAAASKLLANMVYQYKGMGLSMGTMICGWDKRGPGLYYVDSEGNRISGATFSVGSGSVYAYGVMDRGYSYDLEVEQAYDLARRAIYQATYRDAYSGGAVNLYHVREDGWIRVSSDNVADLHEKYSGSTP

[2] = target: 20S proteasome chymotrypsin-like activity (CT-L) (Homo sapiens, UniProt P20618+P28074); assay: 20S proteasome chymotrypsin-like (CT-L) activity inhibition; assay type: biochemical; conditions: chymotrypsin-like activity of 20S proteasome
Procedure: The enzyme inhibitor analogs and prodrugs disclosed herein are useful in part because they inhibit the action of the 20S proteasome. […] That is, the instant compounds show selectivities for the 20S proteasome over other proteases such as cathepsins, calpains, papain, chymotrypsin, trypsin, tripeptidyl pepsidase II. The selectivities of the enzyme inhibitors for 20S proteasome are such that at concentrations below about 50 μM, the enzyme inhibitors show inhibition of the catalytic activity of the 20S proteasome, while not showing inhibition of the catalytic activity of other proteases such as cathepsins, calpains, papain, chymotrypsin, trypsin, tripeptidyl pepsidase II. In preferred embodiments, the enzyme inhibitors show inhibition of the catalytic activity of the 20S proteasome at concentrations below about 10 μM, while not showing inhibition of the catalytic activity of other proteases at these concentrations. In even more preferred embodiments, the enzyme inhibitors show inhibition of the catalytic activity of the 20S proteasome at concentrations below about 1 μM, while not showing inhibition of the catalytic activity of other proteases at these concentrations. Enzyme kinetic assays are disclosed in U.S. application Ser. No. 09/569,748, Example 2 and Stein et al., Biochem. (1996), 35, 3899-3908.
The chymotrypsin-like activity of 20S proteasome is characterized by cleavage of peptides in the immediate vicinity of large hydrophobic residues. In particular, the chymotrypsin-like activity of Ntn hydrolases can be determined by cleavage of a standard substrate. Examples of such substrates are known in the art. For example, a leucylleucylvalinyltyrosine derivative can be used. Enzyme kinetic assays are disclosed in U.S. application Ser. No. 09/569,748, Example 2 and Stein et al., Biochem. (1996), 35, 3899-3908.

| SMILES | IC50 [1] [nM] | IC50 [2] [nM] |
| --- | --- | --- |
| CC(C)C[C@H](NC(=O)[C@H](CCc1ccccc1)NC(=O)CO)C(=O)N[C@@H](Cc1ccccc1)C(=O)N[C@@H](CC(C)C)C(=O)[C@@]1(C)CO1 [Compound 1] | < 100 | < 50 |
| CC(C)C[C@H](NC(=O)[C@H](CCc1ccccc1)NC(=O)CN1CCCCC1)C(=O)N[C@@H](Cc1ccccc1)C(=O)N[C@@H](CC(C)C)C(=O)[C@@]1(C)CO1 [Compound 4] | < 100 | < 100 |
| CC(C)C[C@H](NC(=O)[C@H](CCc1ccccc1)NC(=O)CCCN(C)C)C(=O)N[C@@H](Cc1ccccc1)C(=O)N[C@@H](CC(C)C)C(=O)[C@@]1(C)CO1 [Compound 7] | < 150 | < 50 |
| Cc1nn(C)c(C)c1S(=O)(=O)N[C@@H](CCc1ccccc1)C(=O)N[C@@H](CC(C)C)C(=O)N[C@@H](Cc1ccccc1)C(=O)N[C@@H](CC(C)C)C(=O)[C@@]1(C)CO1 [Compound 8] | < 100 | < 100 |
